From patent publication US7674772B2, “Compositions and methods for treating atherosclerosis” (Queen's University at Kingston, priority 2006, dated 2010)
Square brackets hold non-standard residues; d marks the D form. Ends that are not written are not given here.

Columns and labels:
[1] = system: human cell culture; conditions: U.S. Ser. No. 11/268,690; cited from earlier work
[2] = intravenous and oral administration of an aqueous solution; U.S. Ser. No. 11/268,690; cited from earlier work
[3] = system: mouse cell culture; conditions: U.S. Ser. No. 11/268,690; cited from earlier work
[4] = system: [3H]-cholesterol-loaded J774 macrophages; assay: in vivo mouse cholesterol export model; set-up: species or system mice
Experimental: In these experiments, mice (n=4) were first injected intravenously with [^3H]cholesterol-laden macrophages and then injected 24 hours later with the exemplary retro-inversal D amino acid peptide RFHNPDKGSRGWENAAQDA (D-form; SEQ ID NO: 3). This peptide is the reverse sequence of the forward human D amino acid 19-mer peptide ADQAANEWGRSGKDPNHFR (D-form; SEQ ID NO:11) disclosed in U.S. patent application Ser. No. 11/268,690, filed Nov. 7, 2005, teachings of which are herein incorporated by reference in their entirety.
The retro-inversal D amino acid peptide RFHNPDKGSRGWENAAQDA (SEQ ID NO: 3) at a total dose of 300 ug, was injected into the tail vein of each mouse that was previously (24 hours earlier) injected with H^3-radiolabeled cholesterol-loaded macrophages. […] The blood samples were centrifuged to separate the red blood cells from the plasma and the [^3H]-cholesterol in plasma was determined by scintillation counting. […]
Cells were washed four times with PBS/BSA and then detached from the culture dishes. […] Baseline cholesterol efflux was determined by measuring the amount of [^3H]-cholesterol in plasma by scintillation spectrometry. […]
Five hours following intravenous injection of the reverse peptide, approximately 25 μl of blood were collected from the tail vein of each animal into heparinized capillary tubes and cholesterol efflux was determined as described above. […]

Sequence | cholesterol efflux in vitro [1] | cholesterol efflux in vivo [2] | cholesterol efflux in vitro [3] | increase in macrophage cholesterol export relative to control animals treated with saline vehicle alone ([4]; 300 μg total dose, tail vein injection, [3H]-cholesterol in plasma 5 hours post injection, n=4, p=0.0004) | in vivo macrophage cholesterol export / cholesterol efflux ([4]; intravenous, aqueous vehicle, versus vehicle control group (p=0.0004))
ADQAANEWGRSGKDPNHFR ([dA][dD][dQ][dA][dA][dN][dE][dW]G[dR][dS]G[dK][dD][dP][dN][dH][dF][dR]) [SEQ ID NO:11, forward human SAA 1.1 D amino acid 19-mer peptide disclosed in U.S. Ser. No. 11/268,690] | effective at increasing cholesterol efflux | effective at increasing cholesterol efflux | effective at increasing cholesterol efflux | – | –
RFHNPDKGSRGWENAAQDA ([dR][dF][dH][dN][dP][dD][dK]G[dS][dR]G[dW][dE][dN][dA][dA][dQ][dD][dA]) [SEQ ID NO: 3] | – | – | – | over 2.5 fold | significantly enhanced
